The record followed here is US11708344B2, “Flavone derivatives for the treatment and prophylaxis of hepatitis B virus disease” (Hoffmann-La Roche Inc., priority 2018, dated 2023).

pIC50: −log10 of the molar value. Read-outs that look alike come from different tables or passages of the source.

Data set [1] is described as follows: Human microsome stability assay. It is filed as in vitro ADME. The following applies: human liver microsomes, 1 μM test compound, 0.5 mg/mL microsomal protein, 37° C., pH 7.4, 0-30 minutes. Summed up: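 Compound (1 μM) incubated at 37 °C with human liver microsomes (0.5 mg/mL protein) in 100 mM potassium phosphate, pH 7.4, after 10 min preincubation; started with NADPH regenerating system. Sampled at 0–30 min, quenched with cold ACN; remaining parent quantified by LC-MS/MS, with no-NADPH controls.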

Data set [2] relates to HBeAg (surrogate marker for cccDNA) in HepDES19 cells. Kind of data set: Engineered HepDES19 primary screen assay (HBeAg ELISA). The data set is classed as cell-based, HBV. The procedure, abridged: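 HepDES19 cells were induced by Tet withdrawal for 8 days, then treated with half-log compound dilutions (1% DMSO final) for 5 days at 37 °C. HBeAg was measured by ELISA as the cccDNA surrogate, viability by CCK-8, and IC50 from a 4-parameter logistic fit.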
On the technique in general: In an ELISA, binding on a coated surface is turned into a signal by an enzyme label.

Setting [3] is: Hepatitis B virus, HepDES19, 120 h, read-out: IC50 (HBeAg level, HepDES19 primary screen assay), HepDES19 cells, 5 days compound incubation, HBeAg ELISA.

On to `O=c1cc(-c2cccc(F)c2OCCO[C@H]2C[C@H](C(=O)O)C2)oc2c(Cl)cccc12` [Example C037-B, Trans-3-[2-[2-(8-chloro-4-oxo-chromen-2-yl)-6-fluoro-phenoxy]ethoxy]cyclobutanecarboxylic acid], for which the “Clearance of Human microsome” value in data set [1] is 6.15 mL/min/kg. Moreover, in data set [2] (setting [3]), the pIC50 is 6.27.

Take `Cc1ccc(-c2cc(=O)c3cccc(Cl)c3o2)c(OCCO[C@H]2C[C@H](C(=O)O)C2)c1` [Example C038-B, Trans-3-[2-[2-(8-chloro-4-oxo-chromen-2-yl)-5-methyl-phenoxy]ethoxy]cyclobutanecarboxylic acid]: the “Clearance of Human microsome” value in data set [1] was found to be 6.15 mL/min/kg. Also, the pIC50 in data set [2] (setting [3]) is 5.82.

`COc1ccc(-c2cc(=O)c3cccc(Cl)c3o2)c(OCCO[C@H]2C[C@@H](C(=O)O)C2)c1` [Example C039-A, Cis-3-[2-[2-(8-chloro-4-oxo-chromen-2-yl)-5-methoxy-phenoxy]ethoxy]cyclobutanecarboxylic acid]: the “Clearance of Human microsome” value in data set [1] is 6.15 mL/min/kg. The pIC50 in data set [2] (setting [3]) is 5.05.

In the case of `COc1ccc(-c2cc(=O)c3cccc(Cl)c3o2)c(OCCO[C@H]2C[C@H](C(=O)O)C2)c1` [Example C039-B, Trans-3-[2-[2-(8-chloro-4-oxo-chromen-2-yl)-5-methoxy-phenoxy]ethoxy]cyclobutanecarboxylic acid], in data set [1], the “Clearance of Human microsome” value was 6.15 mL/min/kg. Besides, in data set [2] (setting [3]), the pIC50 is 4.76.

Turning to `COc1cc(OCCO[C@H]2C[C@@H](C(=O)O)C2)c(-c2cc(=O)c3cccc(Cl)c3o2)cc1Br` [Example C040-A, Cis-3-[2-[4-bromo-2-(8-chloro-4-oxo-chromen-2-yl)-5-methoxy-phenoxy]ethoxy]cyclobutanecarboxylic acid], the “Clearance of Human microsome” value in data set [1] is given as 8.52 mL/min/kg. For the same molecule, the pIC50 in data set [2] (setting [3]) was 4.88.

Take `O=c1cc(-c2cc(C(F)(F)F)c(Br)cc2OCCO[C@H]2C[C@@H](C(=O)O)C2)oc2c(Cl)cccc12` [Example C042-A]: in data set [1], the “Clearance of Human microsome” value is 7.57 mL/min/kg. For the same molecule, the pIC50 in data set [2] (setting [3]) is 4.90.

`O=c1cc(-c2cc(F)c(Br)cc2OCCO[C@H]2C[C@H](C(=O)O)C2)oc2c(Cl)cccc12` [Example C044-B, Trans-3-[2-[5-bromo-2-(8-chloro-4-oxo-chromen-2-yl)-4-fluoro-phenoxy]ethoxy]cyclobutanecarboxylic acid]: the “Clearance of Human microsome” value in data set [1] is listed as 9.33 mL/min/kg. Further, in data set [2] (setting [3]), the pIC50 is 5.80.

As for `O=c1cc(-c2ccc(F)cc2OCCO[C@H]2C[C@@H](C(=O)O)C2)oc2c(Cl)cc(F)cc12` [Example C045-A, Cis-3-[2-[2-(8-chloro-6-fluoro-4-oxo-chromen-2-yl)-5-fluoro-phenoxy]ethoxy]cyclobutanecarboxylic acid], the “Clearance of Human microsome” value in data set [1] is listed as 6.53 mL/min/kg. Moreover, the pIC50 in data set [2] (setting [3]) is 5.58.

As for `O=c1cc(-c2ccc(F)cc2OCCO[C@H]2C[C@H](C(=O)O)C2)oc2c(Cl)cc(F)cc12` [Example C045-B, Trans-3-[2-[2-(8-chloro-6-fluoro-4-oxo-chromen-2-yl)-5-fluoro-phenoxy]ethoxy]cyclobutanecarboxylic acid], the “Clearance of Human microsome” value in data set [1] was 9.43 mL/min/kg. In addition, the pIC50 in data set [2] (setting [3]) is 5.54.

On to `O=c1cc(-c2ccccc2OCCO[C@H]2C[C@H](C(=O)O)C2)oc2c(Br)cccc12` [Example C046-B, Trans-3-[2-[2-(8-bromo-4-oxo-chromen-2-yl)phenoxy]ethoxy]cyclobutanecarboxylic acid], for which, in data set [1], the “Clearance of Human microsome” value was found to be 6.15 mL/min/kg. Also, in data set [2] (read-out: IC50 (HBeAg level, HepDES19 primary screen assay), HepDES19 cells, 5 days compound incubation, HBeAg ELISA), the pIC50 was 6.60.

Regarding `O=c1cc(-c2ccccc2OCCO[C@H]2C[C@@H](C(=O)O)C2)oc2c(C(F)(F)F)cccc12` [Example C047-A, Cis-3-[2-[2-[4-oxo-8-(trifluoromethyl)chromen-2-yl]phenoxy]ethoxy]cyclobutanecarboxylic acid], in data set [1], the “Clearance of Human microsome” value came out at 6.15 mL/min/kg. Moreover, the pIC50 in data set [2] (setting [3]) is 4.78.

One may read the pIC50 as −log10 of the IC50, conventionally taken in molar units.
